Measured values from a melting point compilation (Tetko et al.).

Details: a range is the spread between reports

Structure (SMILES)	melting point [°C]
Oc1cc(Cl)c(Cl)cc1Cl	65.5 to 69
CCOC(=O)C(C)(C)C	-90 to -89.5
CCOc1ccc(NC(C)=O)cc1	134 to 138
FC(Cl)(Cl)Cl	-111 to -110
CCOC(=O)c1csc(C)n1	55 to 57
Sc1nc2ccccc2s1	179 to 181
COC(=O)C1C2CC3c4[nH]c5cc(OC)ccc5c4CCN3CC2CC(OC(=O)c2cc(OC)c(OC)c(OC)c2)C1OC (stereo unspecified)	264 to 265
Cc1cccc(-c2ccccc2)c1	4.5 to 5
COc1ccc(N)cc1	57 to 59
CCCCCCCCOC(=O)c1cc(O)c(O)c(O)c1	99 to 102
CCCCCCCCCCCCCCCCCCC	32 to 33
C=CC(=O)OC	-76.5 to -75
CC(Cl)C(Cl)(Cl)Cl (stereo unspecified)	-65 to -64
NC(=O)c1ccccc1Br	160 to 161
CCCCCCCCCCCCCl	-9.3 to -9
C=Cc1ccc(N)cc1	23.5 to 26
CC(=O)c1ccncc1	15 to 16
CCOC(=O)CCC(=O)OCC	-21 to -20
COCc1ccccc1	-53 to -52
Cc1c2ccccc2cc2ccccc12	78 to 81.5
N#C/C=C/C#N	96.8 to 97
OCc1ccccc1Br	80 to 81
Cc1cccc(C)c1C	-25.4 to -25
c1ccc(-c2ccccn2)nc1	70 to 72
CC1CC(C)C(C)C1 (stereo unspecified)	-133 to -131
O=[N+]([O-])c1c(F)cc(F)cc1F	3.5 to 4

Structure (SMILES)	melting point [°C]
O=C(NNc1ccccc1)NNc1ccccc1	170 to 173
CC(=O)c1ccc(O)c(O)c1O	171 to 173
COC(=O)c1cccc([N+](=O)[O-])c1	78 to 80
CCCCC#N	-96.2 to -96
CC(C)=CCN1CCC2(C)c3cc(O)ccc3CC1C2C (stereo unspecified)	146
Clc1ccc(Cl)cc1	52.1 to 55
Nc1ccc(S(=O)(=O)Nc2ccccn2)cc1	190 to 192
O=C(O)c1cccc(I)c1	187 to 188
N#CCc1ccccc1Cl	23 to 24
O=Cc1cccc(Cl)c1	17 to 18
CCCCCCCCCCCCCCCCCCCCCCCCC	53 to 54
Oc1c(Cl)ccc(Cl)c1Cl	56 to 58
O=[N+]([O-])c1cccc(CCl)c1	45 to 47
c1ccc(-c2ccccc2-c2ccccc2)cc1	56 to 57
CCc1ccccc1	-95 to -94.9
CN1C2CCC1CC(=O)C2	42 to 43
OC(CCN1CCCCC1)(c1ccccc1)C1CCCCC1 (stereo unspecified)	114 to 115
CCC1(C(C)C)C(=O)NC(=O)NC1=O	198 to 203
COc1cc(Cc2cnc(N)nc2N)cc(OC)c1OC	200 to 201
CC(C)CC(=O)O	-33 to -29.3
Nc1cccnc1	61 to 64.5
O=C(O)c1ccc(CBr)cc1	225 to 230
O=C(Cl)c1ccccc1Br	10 to 11
Nc1ccc2[nH]ncc2c1	175 to 176
CC1=c2ccccc2=NC1c1ccccc1 (stereo unspecified)	91 to 91.5
CC(C)(Cl)Cl	-34 to -33.8

Structure (SMILES)	melting point [°C]
Clc1cc(Cl)c(Cl)c(Cl)c1	51.5 to 55
Cc1ccc(N)cc1Cl	23 to 26
Ic1ccccc1	-31.3 to -31
CCC(C)N (stereo unspecified)	-105 to -104
O=[N+]([O-])c1cccc2ccccc12	57 to 62
CC1=C(C)CCCC1	-84.1 to -84
CC(C=CC1=C(C)CCCC1(C)C)=CC=CC(C)=CCO	63 to 63.5
Cc1ccc(C(=O)Cl)cc1	-3 to -2
O=CC=Cc1ccco1	51 to 54
Fc1c(F)c(F)c2c(F)c(F)c(F)c(F)c2c1F	87 to 87.5
O=C(O)CCSCCC(=O)O	129 to 131
O=[N+]([O-])c1ccco1	30 to 31
N#CCc1cccc(CC#N)c1	33 to 34
BrCBr	-53 to -52
Cc1ccccc1NC(=N)Nc1ccccc1C	177 to 179
NCC(O)c1ccccc1 (stereo unspecified)	56.5 to 57
O=C(O)C(Cl)Br (stereo unspecified)	27 to 31.5
Clc1ccccn1	-46.5 to -46
Fc1ccc(N=C=S)cc1	26 to 27
C[Si]1(C)O[Si](C)(C)O[Si](C)(C)O[Si](C)(C)O1	17.5 to 18
C=Cc1ccc(O)cc1	73 to 73.5
OC1c2ccccc2Oc2ccccc21	123 to 128
CCOC(=O)CC	-73.9 to -73
O=C/C=C/c1ccccc1	-8 to -7
CNC(=O)Oc1ccccc1OC(C)C	90 to 91.5

Continued, values first:

melting point [°C]	Structure (SMILES)
24 to 25	NCC1CCNCC1
1.5 to 2	CCOC(=O)C#CC(=O)OCC
149 to 152	CC(=O)Nc1ccc(C)cc1
37 to 41	COc1ccccc1C(=O)c1ccccc1
128 to 129	Nc1cccc2cnccc12
146 to 147	Cn1ccnc1S
68.5 to 72	CCCCOC(=O)c1ccc(O)cc1
71 to 72	O=[N+]([O-])c1c(Cl)cc(Cl)cc1Cl
150	O=c1[nH]c(=O)n(C2CC(O)C(CO)O2)cc1F (stereo unspecified)
180 to 183	CN(C)c1ccc(/N=N/c2ccccc2C(=O)O)cc1
60.2 to 61	C1OCOCO1
39 to 40	CCCCCCCCCCCCCCO
36.5 to 38	O=C1CCOc2ccccc21
-100 to -99	COC=O
-131 to -127	FC(C(F)(F)F)C(F)(F)F
6.45 to 7	C1CCCCC1
-115	CCCC(C)=C(C)C
-106	CC(C)=CC(C)(C)C
-91.2 to -91	CCCCC(=O)OCC
184 to 187	O=C(O)c1ccccc1Nc1ccccc1
156 to 160	CC(=O)Nc1ccc(C=O)cc1
34 to 37.5	OCc1c(F)c(F)c(F)c(F)c1F
-104	CCSCC
209 to 212	O=c1c2ccccc2sc2ccccc12

melting point [°C]	Structure (SMILES)
79 to 81.8	CC(=O)c1ccc([N+](=O)[O-])cc1
-126	CC=CC(C)CC (stereo unspecified)
126 to 127	O=C(O)CCCCCCCCCCCCCCCCCCC(=O)O
26 to 27	C=CCOc1nc(OCC=C)nc(OCC=C)n1
-100 to -99	C[Si](C)(C)C
-63 to -62.6	Cc1ccc(C)s1
145 to 146	NS(=O)(=O)c1ccc(Cl)cc1
99 to 101	c1ccc2c(c1)ccc1ccccc12
270 to 275	O=C1CCC(N2C(=O)c3ccccc3C2=O)C(=O)N1 (stereo unspecified)
76 to 78	Cc1ccc([N+](=O)[O-])cc1Br
79 to 81	CC(C)(C(=O)O)c1ccccc1
76 to 77.5	O=C(c1ccccc1)c1ccc(Cl)cc1
107 to 108	Oc1ccccn1
48 to 52.3	C#CC(C)(O)c1ccccc1 (stereo unspecified)
45.8 to 47	OCCCCCCCCCO
35 to 40	c1cc2c3c(c1)CCCN3CCC2
39.1 to 40	CCCCCCCCCCCCCCCCCC(=O)OC
176 to 178	CC1(C)NC(=O)NC1=O
-44 to -43.5	OCC(F)(F)F
-51.9 to -51	O=C1CCCC1
24 to 24.5	C=CCCCCCCCCC(=O)O
270 to 275	NC(CC(=O)O)C(=O)O (stereo unspecified)
100 to 101	COc1ccc(C(=O)O)c(OC)c1OC
116 to 118	Nc1ccc2ccc3cccc4ccc1c2c34

melting point [°C]	Structure (SMILES)
30 to 35	COC(=O)CS(=O)(=O)c1ccccc1
-20 to -16	CC(C)(C)Br
57 to 58	CCOC(=O)CNc1ccccc1
164 to 165	CN(C)c1ccc([N+](=O)[O-])cc1
141 to 142	O=Cc1ccc(O)c([N+](=O)[O-])c1
64 to 67	CCCCP(=O)(CCCC)CCCC
18 to 19	COc1ccc(N=C=S)cc1
-58 to -57.5	CCCCCC1CCCCC1
86 to 88	Clc1cccc(Cl)n1
-69 to -68.5	C=Cc1ccccc1C
220 to 222	O=C(O)c1cc2ccccc2cc1O
61.3 to 62	C1CCCCCCCCCCCCCC1
28 to 29	OCCNCCO
43 to 44	COC(=O)c1ccc(Cl)cc1
31 to 33	FC(F)(F)c1ccc(Cl)nc1
130 to 135	O=C(O)Cc1cccc2ccccc12
79.5 to 80	O=C1CCC(c2ccccc2)CC1
63 to 65	C=Cn1c2ccccc2c2ccccc21
-66.1 to -66	CCCCCCC(=O)OCC
-54 to -53.7	CCc1cc(C)ccc1C
163 to 166	COc1ccc2nc(N)sc2c1
28.5 to 29	C=CCCCCCCCCCCCCCCCCCC
112 to 113	COc1cc(C=O)cc(OC)c1O
-26 to -25.6	CCCCCCCCCCC

melting point [°C]	Structure (SMILES)
77 to 78	O=Cc1ccc(I)cc1
-50 to -49	CCCCN
220 to 224	O=C(O)c1cc(Cl)cc(Cl)c1O
200 to 202	NC(=O)c1ccc([N+](=O)[O-])cc1
-105	C#CCC(C)C
-2 to -1.8	Oc1cccc(C(F)(F)F)c1
186 to 188	O=C1OC(=O)c2cc(Cl)c(Cl)cc21
71.5 to 75	Cc1cccc(O)c1C
-90 to -89.6	CC#CCCC
180 to 181	Oc1c(Cl)cc(Cl)c2cccnc12
163 to 166	CC(=O)Nc1ccc(N)cc1
72 to 74	c1ccc(-c2cnc(-c3ccccc3)o2)cc1
132 to 134	Cc1cc(=O)cc(C)o1
12.5 to 13.5	C=CC(=O)O
62 to 64.5	CCCCCCCCCCCCCCCCCCCCCCCCCCCC
123 to 124	O=C(O)c1cccc(F)c1
69 to 70	COc1ccc(Cl)c(Cl)c1Cl
12 to 14	Cc1nc2ccccc2s1
56 to 58	O=Cc1cc(Cl)ccc1Cl
124 to 128	NNC(=O)Nc1ccccc1
-143 to -142	CC1CCCC1
52.9 to 56	CCCCCCCCCCCCCCCCCCN
